{"source": "patent US10117821B2", "about": "“Topical lightening composition and methods of use thereof” (Avon Products, Inc., priority 2013, dated 2018)", "key": {"B16 mouse melanoma cells": {"test_system": "B16 mouse melanoma cells", "assay": "Melanin synthesis in B16 melanoma cell assay, normalized to MTT cell viability", "format": "cell-based", "conditions": "7 days, vs water vehicle control, 6 replicates", "description": "The effects of 3,3′-thiodipropanoic acid and Kojic acid on melanin levels were determined by performing assays using B16 melanoma cells. These cells are known to constitutively produce melanin and are a commonly utilized and accepted model system for monitoring the inhibition of melanin synthesis.\nThe B16 mouse melanoma cells were seeded (ATCC, cat. #: CRL-6475) into 96-well tissue culture-treated plates (BD Falcon) and treated with test actives or controls in DMEM without phenol red (Mediatech; cat. #: 17-205-CV). The cells were examined for their ability to modulate pigment formation. […] Tests were performed in 6 replicates each. Following the treatment period, the level of pigment produced or melanin synthesized was quantified by reading the absorbance at 540 nm using a standard microplate reader (Tecan Group Ltd.).\nAfter quantifying the amount of melanin, cell viability was determined using the MTT conversion method. […] After quantifying the amount of melanin pigment produced, the cells were exposed to MTT dye solution (1 mg/ml) for two to three hours. […] MTT dye uptake and conversion by viable cells were determined by measuring the extracted formazan at 570 nm using a microplate reader. Total pigmentation was calculated, normalized to cell viability values and expressed as the average percent change in melanin level relative to control of sextuplicates performed."}, "[1]": {"test_system": "MELANODERM™ (MEL-300-B) human skin model", "assay": "Melanin levels in MELANODERM 3D human skin model", "format": "cell-based", "conditions": "vs water vehicle control", "description": "The effect of 3,3′-thiodipropanoic acid or Thiodipropionic acid (TDPA) and Nicotinamide on melanin levels was investigated using a MELANODERM™ (MEL-300-B, MatTek Corp., Ashland, Mass.) human skin model. MELANODERM™ is a viable reconstituted three-dimensional human skin equivalent containing melanocytes derived from African-American donors. Tissues were maintained in culture medium EPI-100-NMM-113 at 37° C. as recommended by the manufacturer.\nTDPA was dissolved in water to a final concentration of 1.0% (w/v). Nicotinamide was dissolved in the culture media to a final concentration of 0.1% (w/v). 25 μl of the TDPA solution was applied topically to the MELANODERM™ tissue while 0.1% Nicotinamide containing culture medium was added on days 1, 2, 4, 7, 9, and 11. Control tissues were treated with water vehicle only. The tissue was treated with both active lightening agents at “saturated concentration,” which is the highest concentration of treatment that is not toxic to the system.\nOn Day 14, tissues were collected and homogenized in a buffer containing 1% SDS, 50 mM EDTA, and 10 mM Tris, pH 6.8. To each homogenate, protease K (5 mg/ml) was added and incubated overnight at 45° C. Additional protease K was added and incubated for 4 hours at 45° C., followed by the addition of 0.5M sodium carbonate and 30% H2O2 and incubation at 80° C. for 30 minutes. The samples were cooled down to room temperature, and extracted with chloroform/methanol (2:1). After centrifugation at 10,000 g for 10 minutes, absorbance of the top phase was measured at 450 nm. Percent change in melanin levels in treated tissue was calculated relative to control.\nThe effect of TDPA and Soybean Trypsin Inhibitor (STI) on melanin levels was investigated using the MELANODERM™ human skin model according to the methods described in Example 1."}}, "note": "Marks after values point to notes of the source that are not given here."}
{"molecule": "O=c1cc(CO)occ1O", "note": "[Kojic Acid, Kojic acid (5-hydroxy-4-pyran-4-one-2-methyl), reference compound]", "values": [{"measurement": "% CHANGE IN MELANIN", "setting": "B16 mouse melanoma cells; 0.01% final concentration", "value": "−47.6", "unit": "%*"}]}
{"molecule": "O=C(O)CCSCCC(=O)O", "note": "[TDPA, 3,3′-thiodipropionic acid]", "values": [{"measurement": "% CHANGE IN MELANIN", "setting": "B16 mouse melanoma cells; 0.1% final concentration", "value": "−27.4", "unit": "%*"}, {"measurement": "% CHANGE IN MELANIN", "setting": "[1]; Example 1, 1% (w/v) in water, 25 μl topical, Day 14, average of three tissues", "value": "−10", "unit": "%*"}, {"measurement": "% CHANGE IN MELANIN", "setting": "[1]; Example 3, 1%, methods of Example 1", "value": "−9.1", "unit": "%"}]}
{"molecule": "NC(=O)c1cccnc1", "note": "[Nicotinamide, nicotinamide (3-pyridinecarboxamide), reference compound]", "values": [{"measurement": "% CHANGE IN MELANIN", "setting": "[1]; Example 1, 0.1% (w/v) in culture medium, Day 14, average of three tissues", "value": "−16", "unit": "%*"}]}
{"molecule": "STI: Soybean Trypsin Inhibitor (STI), a known melanosome transfer inhibitor (protein, UniProt P01070 25-205, looked up) Trypsin inhibitor A: DFVLDNEGNPLENGGTYYILSDITAFGGIRAAPTGNERCPLTVVQSRNELDKGIGTIISSPYRIRFIAEGHPLSLKFDSFAVIMLCVGIPTEWSVVEDLPEGPAVKIGENKDAMDGWFRLERVSDDEFNNYKLVFCPQQAEDDKCGDIGISIDHDDGTRRLVVSKNKPLVVQFQKLDKESL", "values": [{"measurement": "% CHANGE IN MELANIN", "setting": "[1]; Example 3, 0.1%, methods of Example 1", "value": "−8.9", "unit": "%"}]}
